The source of these data is US20110294736A1, “COMPOUNDS AND METHODS FOR THE TREATMENT OF AUTOIMMUNE AND INFLAMMATORY DISEASE” (THE PROVOST, FELLOWS AND SCHOLARS OF THE HOLY AND UNDIVIDED …, priority 2008, published 2011).

Assay [1] has as its system antigen presenting cells (PECs) activating MOG-specific T cells. The assay can be described thus: IFN-γ of MOG-specific T cells cultured with irradiated PECs of treated mice as antigen presenting cells. It is filed as in vivo. The note with it: TriDAP 100 μg/mouse/day i.p. 5 days vs PBS; MOG 20 μg/ml; 72 hours. As to the method:
Mice were treated with either PBS or TriDAP (100 μg/mouse/day i.p.) for 5 days. Peritoneal exudate stimulator cells (PECs) were irradiated and used as antigen presenting cells (APC) for MOG-specific T cells. T cells from mice immunized with MOG (Myelin oligodendrocyte glycoprotein) and CFA (1×10^6/ml) were culture with PECs (1×10^6/ml) and MOG (20 μg/ml). Supernatants were collected after 72 hours and IFN-γ concentrations were quantified by ELISA.

For assay [2], the system named is IL-17-expressing and IFN-γ-expressing T cells in the brains of mice with EAE. The assay can be described thus: Intracellular IFN-γ and IL-17 staining (flow cytometry) of brain mononuclear cells of EAE mice. The note with it: CD3+, CD3+ CD4+ and CD3+ CD4− cells; 12 days post EAE induction; PMA/ionomycin. It counts as in vivo. The procedure: Mononuclear cells were isolated from the brains of control EAE or Tri-DAP treated EAE mice 12 days post EAE induction. Cells were restimulated overnight with PMA/ionomycin and incubated with Brefeldin A. Cells were stained with anti-CD3 (FIG. 4), or anti-CD3 and anti-CD4 (FIGS. 5 and 6). Cells were then fixed and permeabilized, stained intracellularly with anti-IFN-γ and anti-IL-17 and analysed by flow cytometry.
Background: In flow cytometry, cells or beads pass a laser one at a time.

Assay [3] relates to dendritic cells activating Th17 cells. The experiment in a line: IL-17 of CD4 T cells cultured with LPS-stimulated dendritic cells with and without TriDAP. It counts as cell-based, mice. The following applies: TriDAP 100 μg/ml; LPS 10 or 100 ng/ml; KLH 20 μg/ml; 72 hours. As to the method: CD4 T cells from mice immunized with MOG and LPS, were cultured in vitro with dendritic cells stimulated with LPS (10 or 100 ng/ml) with and without TriDAP (100 μg/ml) in the presence of KLH (20 μg/ml). Supernatants were collected after 72 hours and IL-17 concentrations were quantified by ELISA. *P<0.05, ***P<0.001, with and without TriDAP.

In another assay the test system is NF-κB. The note with it: higher than iE-DAP; previously shown; cited from earlier work.
The subject of assay [4] is experimental autoimmune encephalomyelitis (EAE) in C57BL/6 mice. The assay can be described thus: EAE induced with MOG35-55/CFA and pertussis toxin, clinical score and body weight. It counts as in vivo. As to the method:
EAE was induced in C57BL/6 mice by subcutaneous (s.c) injection with 150 μg of MOG35-55 in CFA supplemented with 4 mg/ml H37 Ra M. tuberculosis on day 0. All mice were injected intra-peritoneally (i.p) with Pertussis toxin (PT) on days 0 and 2. One group of mice were untreated and the second group were given Tri-DAP (100 μg/mouse) on day 0 in MOG/CFA emulsion and again on days 1, 2 and every 2 days thereafter. Clinical scores were assessed daily and body weights were recorded. Disease severity was graded as follows: grade 0: normal, grade 1: limp tail, grade 2: wobbly gait; grade 3: hind limb weakness; grade 4: hind limb paralysis; grade 5: tetraparalysis/death. † indicates control mice were sacrificed due to severity of EAE disease.

For a further assay, the system named is EAE in SJL mice. The experiment in a line: SJL mouse relapsing-remitting EAE model (PLP/CFA, PT), clinical score. It counts as in vivo. The following applies: TriDAP 100 μg/mouse every 2 days from day 12, vs PBS, mean of 5-6 mice per group. From the text: EAE (experimental autoimmune encephalomyelitis) was induced in SJL mice by immunization with […] (PLP) in complete Freund's adjuvant (CFA) followed by Bordetella pertussis toxin (PT). SJL mice were developed by James Lambert at The Jackson Laboratory in 1955 from three different sources of Swiss Webster mice. The strain is characterized by its susceptibility to experimental autoimmune encephalomyelitis (EAE) for multiple sclerosis research, and therefore provides an improved model (over the MOG (myelin oligodendrocyte glycoprotein) model) for assessing the therapeutic potential of compounds. Mice were treated with PBS (control) or TriDAP (100 μg/mouse) every 2 days from day 12. Clinical scores were assessed daily and body weights were recorded. Disease severity was graded as follows: grade 0: normal, grade 1: limp tail, grade 2: wobbly gait; grade 3: hind limb weakness; grade 4: hind limb paralysis; grade 5: tetraparalysis/death. † indicates control mice were sacrificed due to severity of EAE disease.

Assay [5] relates to Peritoneal exudate cells (PECs). The experiment in a line: TLR agonist induced cytokines (ELISA) of peritoneal exudate cells from treated mice. It is filed as in vivo. The note with it: TriDAP 100 μg/mouse/day i.p. 5 days vs PBS; LPS, CpG or Pam3Csk; 24 hours. The procedure:
Mice were treated with either PBS or TriDAP (100 μg/mouse/day i.p.) for 5 days. Peritoneal exudate cells (PECs; 1×10^6/ml) were stimulated with medium alone (control), or with a Toll-like Receptor agonist selected from the following: the TLR4 agonist LPS (lipopolysaccharide) (100 ng/ml), the TLR9 agonist CpG (5 μg/ml), or the TL2 agonist Pam3Csk (500 ng/ml). Supernatants were collected after 24 hours and cytokine concentrations were quantified by ELISA.
For orientation: An ELISA detects its analyte on a solid surface through an enzyme-linked reagent.

As for `C[C@H](N)C(=O)N[C@H](CCC(=O)N[C@@H](CCC[C@@H](N)C(=O)O)C(=O)O)C(=O)O` [Tri-DAP, L-alanyl-γ-D-glutamyl-meso-diaminopimelic acid], the “IFN-gamma secreted by antigen-specific T cells stimulated with APC of treated mice” value in assay [1] was “less”. Also, in assay [2], the “IFN-γ production by brain T cells” value is on record as “suppressed” and the “IL-17 production by brain T cells” value is listed as “suppressed”. For the same molecule, in assay [3], the “ability of dendritic cells to activate IL-17 production by CD4 T cells” value is on record as “significant reduction”. Moreover, in the assay on NF-κB, the “ability to activate NF-κB relative to iE-DAP” value is on record as 3 fold. Besides, the weight loss entry in assay [4] (C57BL/6 EAE mice, Tri-DAP 100 μg/mouse vs untreated control) is on record as “dramatic weight loss in the control mice when compared to the Tri-DAP treated mice”. For the same molecule, the “first clinical signs of EAE disease” value in assay [4] (C57BL/6 mice, Tri-DAP 100 μg/mouse day 0 in MOG/CFA emulsion, days 1, 2 and every 2 days, untreated mice 5-6 days) came out at 11 days post induction. Further, the “severity of EAE disease (clinical score)” value in assay [4] (C57BL/6 mice, Tri-DAP 100 μg/mouse, untreated peaked at 3.5-4 by day 12) is reported as “lower than that observed in the untreated control mice”. In addition, the clinical scores result in the assay on EAE in SJL mice is on record as “reduction”. In assay [5], the “IL-10 secreted by PEC after re-stimulation with TLR agonists” value was “higher concentrations” and the “TGF-beta secreted by PEC after re-stimulation with TLR agonists” value is “higher concentrations”.
